Measurements from patent US12668803B2, “Glypican-3-specific modified aptamer and use thereof” (APTAMER SCIENCES INC., priority 2019, dated 2026).

Key:
Huh 7 cells = experiment: Cell binding analysis of Cy5-labeled aptamers (FACS); format: cell-based; settings: three vs five gemcitabines bound, method of Example 2-1, FIG. 19
Description: The 12-10 aptamer and 5 aptamer libraries prepared by truncating the 12-10 aptamer at various lengths [12-10 (40-mer), 12-12 (35-mer), 12-11 (29-mer), 12-13 (24-mer), 12-14 (23-mer), 12-15 (18-mer)] were subjected to cell binding analysis. Each aptamer sequence was labeled with Cy5 at the 5′ end thereof according to the method of Example 1-1. Huh 7 cells (ATCC, Rockville, MD, USA) were seeded at a density of 2×10^6/mL in a 100 mm^2 culture plate, and cultured using a DMEM medium (Gibco, Grand Island, NY, USA) containing 10% FBS (Gibco, Grand Island, NY, USA) and 1% antibiotics (penicillin/streptomycin) under conditions of 5% CO2 and 37° C. 5 μM of the aptamer stock was mixed with 5×SB18 buffer to prepare the aptamer at a concentration of 4 μM, and heated at 95° C. for 5 min, and then cooled at room temperature for 15 min or more. 4 μM of the aptamer was diluted with KRPH buffer (20 mM HEPES, 5 mM KH2PO4, 1 mM MgSO4, 1 mM CaCl2, 136 mM NaCl, 4.7 mM KCl, pH 7.4) at a concentration of 25 nM. The culture medium was removed from the cultured cells, and 4 mL of phosphate-buffered saline (PBS) was added thereto, followed by washing, and then 4 mL of PBS was removed. 4 mL of cold PBS or warm PBS was added, and cells were scraped using a scraper, and collected in tubes, followed by pipetting. The cells were divided and added to fluorescence-activated cell sorting (FAC) tubes according to the number of samples, followed by centrifugation at 4° C. and 2000 rpm for 4 min. After removing the supernatant, each 500 μL of 25 nM aptamer and control (31-08 (40-mer) aptamer) were added to […] of KRPH buffer, followed by pipetting. The tube was covered with foil to block the light, followed by incubation at 4° C. for 30 min. After incubation, centrifugation was performed at 4° C. and 2000 rpm for 4 min, and the supernatant was removed. 2 mL of cold 1×PBS was added, washed, centrifuged at 4° C. and 2000 rpm for 4 min, and the supernatant was removed. This process was repeated three times. […] Cy5 was measured at […]. […]

[1] = tested on: hepatoma cells (Hep3B, HepG2); experiment: Cell cycle analysis (propidium iodide, FACS); format: cell-based; settings: 4 hr treatment, FIGS. 25 and 26
Description: (§1) To analyze the effects of combi 4 and combi 5 bound with three or five gemcitabines on the cell cycle of hepatoma cells, cell cycle analysis was performed. In detail, Hep3B, HepG2, and A431 cells were seeded in a 6-well plate at a density of 1×10^6/ml, and cultured using a DMEM medium containing 10% FBS and 1% antibiotics (penicillin/streptomycin) under conditions of 5% CO2 and 37° C., respectively. Next day, 100 μM of the modified aptamer stock was mixed with 5×SB18 buffer to prepare the aptamer at a concentration of 80 μM, and heated at 95° C. for 5 min, and then cooled at room temperature for 15 min or more. The medium was removed from the cultured cells, and replaced by a serum-free medium, and cultured under conditions of 37° C. and 5% CO2 for 1 hr. The serum-free medium was removed, and then the cells were washed with 2 ml of 1×PBS. 2 ml of KRPH buffer was added, and cultured under conditions of 37° C. and 5% CO2 for 1 hr. The aptamer was added, and cultured under conditions of 37° C. and 5% CO2 for 4 hr. The KRPH buffer was removed, and 2 ml of 1×PBS was added thereto to perform washing, and then PBS was removed. 2 ml of 1×PBS was added, and cells were scraped using a scraper, and collected in FACs tubes, followed by centrifugation at 4° C. and 2000 rpm for 4 minutes. 1/500-fold diluted RNAase A and propidium iodide diluted with PBS at a concentration of 50 μg/ml were added to the FACs tubes at a volume of 500 μL, followed by pipetting. Incubation was performed at room temperature for 30 min while blocking the light, and then cell cycle was measured.

[2] = tested on: squamous cell carcinoma cells (A431); experiment: Cell cycle analysis (propidium iodide, FACS); format: cell-based; settings: 4 hr treatment, FIG. 27
Description: as §1

[3] = Serum stability analysis (urea PAGE); format: in vitro ADME, human
Description: To examine whether 12-12, combi 5 aptamer, combi 4 and combi 5 modified aptamers bound with three or five gemcitabines are stable in the human serum, serum stability was analyzed. In detail, 10 μL of […] was added to 100% human serum, followed by incubation at 37° C. for 0 hr, 1 hr, 3 hr, 6 hr, 12 hr, and 24 hr. After incubation, 5 μL of […] was added, and distilled water was added to a volume of 250 μL. 250 μL of phenol:chloroform:isoamyl alcohol (25:24:1) was added in the equal volume, followed by stirring. Each sample was centrifuged at 16000×g for 10 min. The supernatant was transferred to a new tube, and completely dried. The resultant was diluted with 5× sample buffer and distilled water, and boiled at 95° C. for 5 min, and cooled. The sample was separated by urea PAGE (Polyacrylamide gel Electrophoresis) at 220 V for 25 min, and then stained with SYBR gold and examined using a Gel Doc™ EZ system.

With “Combi 5 G(3) (DNA GNGAANGCGNNGAANNANWYSSSNNCAGNCANCAC; gemcitabines, 2'-OMe, 2'-F, BzdU, 3' idT; Combi 5 G(3); (1)..(1) G is 2-O-Methoxy-DNA.; (2)..(2) n is BzdU.; (3)..(3) G is 2-O-Methoxy-DNA.; (4)..(4) A is 2-Fluorine-DNA.; (5)..(5) A is 2-Fluorine-DNA.; (6)..(6) n is BzdU.; (10)..(10) n is BzdU.; (11)..(11) n is BzdU.; (12)..(12) G is 2-Fluorine-DNA.; (13)..(13) A is 2-Fluorine-DNA.; (14)..(14) A is 2-O-Methoxy-DNA.; (15)..(15) n is BzdU.; (16)..(16) n is BzdU.; (17)..(17) A is 2-O-Methox)” the cell binding ability (Huh 7 cells) was “excellent cell binding ability”, the cell cycle arrest [1] was “arrested hepatoma cells at the G1/S phase” and the cell cycle arrest [2] was “no cell cycle arrest”. For the same substance, the “half-life in the human serum” value ([3]; 100% human serum, 37° C., FIG. 28) was “about 64 hr” and the “improvement of serum half-life compared with 12-12 aptamer” value ([3]; human serum) was no less than 10 times.
